Reference: PubChem BioAssay (NCI)
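Results reflect a 48-hour exposure of cells in 96-well plates to compound at five concentrations. The concentration for 50% growth inhibition is given as GI50. The concentration for full growth arrest is given as TGI.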

How the values were obtained:
Assay in all cases: DTP human tumour cell line panel, 48 h
786-0 renal = tested on: 786-0 renal
A498 renal = tested on: A498 renal
A549 NSCLC = tested on: A549 NSCLC
ACHN renal = tested on: ACHN renal
BT-549 breast = tested on: BT-549 breast
CAKI-1 renal = tested on: CAKI-1 renal
CCRF-CEM leukemia = tested on: CCRF-CEM leukemia
COLO 205 colon = tested on: COLO 205 colon
DU-145 prostate = tested on: DU-145 prostate
EKVX NSCLC = tested on: EKVX NSCLC
HCT-116 colon = tested on: HCT-116 colon
HCT-15 colon = tested on: HCT-15 colon
HOP-62 NSCLC = tested on: HOP-62 NSCLC
HOP-92 NSCLC = tested on: HOP-92 NSCLC
HS 578T breast = tested on: HS 578T breast
HT29 colon = tested on: HT29 colon
IGROV1 ovarian = tested on: IGROV1 ovarian
K-562 leukemia = tested on: K-562 leukemia
KM12 colon = tested on: KM12 colon
LOX IMVI melanoma = tested on: LOX IMVI melanoma
M14 melanoma = tested on: M14 melanoma
MALME-3M melanoma = tested on: MALME-3M melanoma
MCF7 breast = tested on: MCF7 breast
MDA-MB-231 breast = tested on: MDA-MB-231 breast
MDA-MB-435 = tested on: MDA-MB-435
MOLT-4 leukemia = tested on: MOLT-4 leukemia
NCI-H226 lung = tested on: NCI-H226 lung
NCI-H23 lung = tested on: NCI-H23 lung
NCI-H460 lung = tested on: NCI-H460 lung
NCI-H522 lung = tested on: NCI-H522 lung
NCI/ADR-RES ovarian = tested on: NCI/ADR-RES ovarian
OVCAR-3 ovarian = tested on: OVCAR-3 ovarian
OVCAR-4 ovarian = tested on: OVCAR-4 ovarian
OVCAR-5 ovarian = tested on: OVCAR-5 ovarian
OVCAR-8 ovarian = tested on: OVCAR-8 ovarian
PC-3 prostate = tested on: PC-3 prostate
RPMI-8226 leukemia = tested on: RPMI-8226 leukemia
RXF 393 renal = tested on: RXF 393 renal
SF-268 CNS = tested on: SF-268 CNS
SF-295 CNS = tested on: SF-295 CNS
SF-539 CNS = tested on: SF-539 CNS
SK-MEL-2 melanoma = tested on: SK-MEL-2 melanoma
SK-MEL-28 melanoma = tested on: SK-MEL-28 melanoma
SK-MEL-5 melanoma = tested on: SK-MEL-5 melanoma
SK-OV-3 ovarian = tested on: SK-OV-3 ovarian
SN12C renal = tested on: SN12C renal
SNB-19 CNS = tested on: SNB-19 CNS
SNB-75 CNS = tested on: SNB-75 CNS
SR leukemia = tested on: SR leukemia
SW-620 colon = tested on: SW-620 colon
T-47D breast = tested on: T-47D breast
TK-10 renal = tested on: TK-10 renal
U251 CNS = tested on: U251 CNS
UACC-257 melanoma = tested on: UACC-257 melanoma
UACC-62 melanoma = tested on: UACC-62 melanoma
UO-31 renal = tested on: UO-31 renal

## O=C1Nc2ccccc2/C1=C\c1c(Cl)nc2sccn12
786-0 renal
  GI50: 1.32 µM
  TGI: 4.94 µM
A498 renal
  GI50: 9.38 µM
  TGI: 22.4 µM
A549 NSCLC
  GI50: 3.51 µM
  TGI: > 43.1 µM
ACHN renal
  GI50: 3.12 µM
  TGI: 18.2 µM
BT-549 breast
  GI50: 1.15 µM
  TGI: 12.7 µM
CAKI-1 renal
  GI50: 1.22 µM
  TGI: 4.8 µM
CCRF-CEM leukemia
  GI50: 2.68 µM
  TGI: 15.8 µM
COLO 205 colon
  GI50: 1.11 µM
  TGI: 5.97 µM
DU-145 prostate
  GI50: 5.75 µM
  TGI: 53.4 µM
EKVX NSCLC
  GI50: 1.88 µM
  TGI: 13.8 µM
HCT-116 colon
  GI50: 1.94 µM
  TGI: 12.8 µM
HCT-15 colon
  GI50: 1.18 µM
  TGI: 8.46 µM
HOP-62 NSCLC
  GI50: 1.82 µM
  TGI: 12.9 µM
HOP-92 NSCLC
  GI50: 4.31 µM
  TGI: 11.1 µM
HS 578T breast
  GI50: 4.14 µM
  TGI: 35.7 µM
HT29 colon
  GI50: 1.32 µM
  TGI: > 32.2 µM
IGROV1 ovarian
  GI50: 5.05 µM
  TGI: > 54.6 µM
K-562 leukemia
  TGI: > 100 µM
KM12 colon
  GI50: 0.67 µM
  TGI: 19.4 µM
LOX IMVI melanoma
  GI50: 3.45 µM
  TGI: 17.4 µM
M14 melanoma
  GI50: 2.02 µM
  TGI: 9.23 µM
MALME-3M melanoma
  GI50: 5.48 µM
  TGI: > 44.7 µM
MCF7 breast
  GI50: 0.66 µM
  TGI: 17.3 µM
MDA-MB-231 breast
  GI50: 6.87 µM
  TGI: 22.8 µM
MDA-MB-435
  GI50: 0.441 µM
  TGI: 1.11 µM
MOLT-4 leukemia
  GI50: 3.52 µM
  TGI: > 100 µM
NCI-H226 lung
  GI50: 6.11 µM
  TGI: 16 µM
NCI-H23 lung
  GI50: 4.7 µM
  TGI: 17.1 µM
NCI-H460 lung
  GI50: 2.76 µM
  TGI: 29.8 µM
NCI-H522 lung
  GI50: 3.9 µM
  TGI: 29.8 µM
NCI/ADR-RES ovarian
  GI50: 1.26 µM
  TGI: 7.64 µM
OVCAR-3 ovarian
  GI50: 1.36 µM
  TGI: 3.73 µM
OVCAR-4 ovarian
  GI50: 13.9 µM
  TGI: > 61.4 µM
OVCAR-5 ovarian
  GI50: 3.06 µM
  TGI: 9.39 µM
OVCAR-8 ovarian
  GI50: 3.85 µM
  TGI: 35.8 µM
PC-3 prostate
  GI50: 2.44 µM
  TGI: 23.9 µM
RPMI-8226 leukemia
  GI50: 1.17 µM
  TGI: 4.48 µM
RXF 393 renal
  GI50: 3.2 µM
  TGI: 19 µM
SF-268 CNS
  GI50: 5.41 µM
  TGI: 29.5 µM
SF-295 CNS
  GI50: 1.11 µM
  TGI: 3.24 µM
SF-539 CNS
  GI50: 4.47 µM
  TGI: > 43.3 µM
SK-MEL-2 melanoma
  GI50: 4.16 µM
  TGI: > 41.2 µM
SK-MEL-28 melanoma
  GI50: 4.91 µM
  TGI: 26.8 µM
SK-MEL-5 melanoma
  GI50: 1.77 µM
  TGI: 8.51 µM
SK-OV-3 ovarian
  GI50: 4.18 µM
  TGI: 10.8 µM
SN12C renal
  GI50: 6.84 µM
  TGI: 20.6 µM
SNB-19 CNS
  GI50: 6.78 µM
  TGI: 37.7 µM
SNB-75 CNS
  GI50: 3.23 µM
  TGI: 8.34 µM
SR leukemia
  GI50: 0.359 µM
  TGI: > 100 µM
SW-620 colon
  GI50: 3 µM
  TGI: > 58.9 µM
T-47D breast
  GI50: 8.88 µM
  TGI: 33.9 µM
TK-10 renal
  GI50: 3.24 µM
  TGI: 8.21 µM
U251 CNS
  GI50: 2.45 µM
  TGI: 8.31 µM
UACC-257 melanoma
  GI50: 8.03 µM
  TGI: > 70.8 µM
UACC-62 melanoma
  GI50: 1.34 µM
  TGI: 11.9 µM
UO-31 renal
  GI50: 2.69 µM
  TGI: 16.8 µM
